Key:
[1] = test system: bovine fast myosin subfragment 1 (fast S1, cutaneous trunci)
[2] = molecular target: bovine slow myosin subfragment 1 (slow S1, masseter) (Bos taurus, UniProt Q9BE39); assay: biochemical
purified protein = substrate: O=P(O)(O)OP(=O)(O)OP(=O)(O)O; assay: purified protein; details: Mg2+

Sequence of bovine slow myosin subfragment 1 (slow S1, masseter) (P85100 2-199 partner, one chain of several): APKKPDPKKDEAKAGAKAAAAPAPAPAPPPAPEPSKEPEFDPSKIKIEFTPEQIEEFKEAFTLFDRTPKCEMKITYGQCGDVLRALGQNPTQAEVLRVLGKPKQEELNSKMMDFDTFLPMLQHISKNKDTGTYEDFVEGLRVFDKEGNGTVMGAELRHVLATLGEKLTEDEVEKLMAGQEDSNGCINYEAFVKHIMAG

Molecule	Ki [1] [µM]	Ki [2] [µM]	Km (purified protein) [µM]
O=P(O)(O)OP(=O)(O)O [PPi, pyrophosphate]	88 ± 6.9	18 ± 1.8	
bovine slow myosin subfragment 1 (slow S1, masseter) (Bos taurus) (protein) MVDAEMAAFGEAAPYLRKSEKERLEAQTRPFDLKKDVFVPDDKEEFVKATILSREGGKVTAETEHGKTVTVKEDQVLQQNPPKFDKIEDMAMLTFLHEPAVLYNLKERYASWMIYTYSGLFCVTINPYKWLPVYNAEVVAAYRGKKRSEAPPHIFSISDNAYQYMLTDRENQSILITGESGAGKTVNTKRVIQYFAVIAAIGDRSKKEQATGKGTLEDQIIQANPALEAFGNAKTVRNDNSSRFGKFIRIHFGATGKLASADIETYLLEKSRVIFQLKAERDYHIFYQILSNKKPELLDMLLITNNPYDYAFISQGETTVASIDDAEELMATDNAFDVLGFTTEEKNSMYKLTGAIMHFGNMKFKLKQREEQAEPDGTEEADKSAYLMGLNSADLLKGLCHPRVKVGNEYVTKGQNVQQVVYAKGALAKAVYERMFNWMVTRINATLETKQPRQYFIGVLDIAGFEIFDFNSFEQLCINFTNEKLQQFFNHHMFVLEQEEYKKEGIEWEFIDFGMDLQACIDLIEKPMGIMSILEEECMFPKATDMTFKAKLFDNHLGKSSNFQKPRNIKGKPEAHFSLIHYAGTVDYNIIGWLQKNKDPLNETVVDLYKKSSLKMLSSLFANYAGFDTPIEKGKGKAKKGSSFQTVSALHRENLNKLMTNLRSTHPHFVRCIIPNETKSPGVIDNPLVMHQLRCNGVLEGIRICRKGFPNRILYGDFRQRYRILNPAAIPEGQFIDSRKGAEKLLGSLDIDHNQYKFGHTKVFFKAGLLGLLEEMRDERLSRIITRIQAQSRGVLSRMEFKKLLERRDSLLIIQWNIRAFMGVKNWPWMKLYFKIKPLL			380 ± 130

From publication PMC2866097 (Meat science, 2010)
